Measurements from patent publication US20250145609A1, “3-SUBSTITUTED PYRIDAZINE COMPOUNDS AS SMARCA2 AND/OR SMARCA4 DEGRADERS” (Aurigene Oncology Limited, priority 2022, published 2025).
Each block holds one compound with its values, some of them ahead of it.

How the values were obtained:
Assay type in all cases: cell-based
[1] = tested on: VCaP cells; assay: Anti proliferative activity in VCaP cell line by CellTiter Glo assay; details: Homo sapiens, VCaP, 192 h, 8 days incubation, CellTiter Glo luminescence
Protocol: Example-P1: Determination of Anti Proliferative Activity of Compounds in Cell Lines VCaP by Cell Titer Glo©(Promega) Assay
VCaP (ATCC CRL-2876) cells were seeded in 96 well plate flat black clear bottom plates (Corning, Cat. No 3904) using complete DMEM Medium. Next day, compounds listed in the present invention were added to cells from 10 mM stocks made in DMSO (Sigma Cat no. D2650). Each concentration of compound was tested in triplicate with DMSO concentration at a final percentage not exceeding 0.3 in the cells. After the incubation of VCaP cells with compound for 8 days assay was terminated using 50 μl of CellTiter Glo© reagent (Promega, Cat. no G7572). CellTiter-Glo® Luminescent reagent determines the number of viable cells based on quantitation of ATP present which is an indicator of cell number and metabolic activity. Luminescence readings were taken in Victor-3 instrument. Percent inhibition of proliferation was calculated using formula, % inhibition=100−(luminescence value of test/luminescence value of DMSO control)*100. DMSO control (0%)=Cells in complete media with DMSO; blank=Media alone containing DMSO. EC50 was calculated using graph pad prism software.
Herein the group “A” refers to EC50 values lower than l0 nM, group “B” refers to EC50 values between l0 nM-100 nM (both inclusive) and group “C” refers to EC50 values greater than 100 nM.

[2] = target: T1, SMARCA2 (Homo sapiens, UniProt P51531); assay: SMARCA2 degradation in VCaP cells by Western blot; details: at 100 nM, 16 hours
T1 construct: endogenous in cells; host or cells: VCaP (ATCC CRL-2876)
T1 sequence (P51531 whole entry): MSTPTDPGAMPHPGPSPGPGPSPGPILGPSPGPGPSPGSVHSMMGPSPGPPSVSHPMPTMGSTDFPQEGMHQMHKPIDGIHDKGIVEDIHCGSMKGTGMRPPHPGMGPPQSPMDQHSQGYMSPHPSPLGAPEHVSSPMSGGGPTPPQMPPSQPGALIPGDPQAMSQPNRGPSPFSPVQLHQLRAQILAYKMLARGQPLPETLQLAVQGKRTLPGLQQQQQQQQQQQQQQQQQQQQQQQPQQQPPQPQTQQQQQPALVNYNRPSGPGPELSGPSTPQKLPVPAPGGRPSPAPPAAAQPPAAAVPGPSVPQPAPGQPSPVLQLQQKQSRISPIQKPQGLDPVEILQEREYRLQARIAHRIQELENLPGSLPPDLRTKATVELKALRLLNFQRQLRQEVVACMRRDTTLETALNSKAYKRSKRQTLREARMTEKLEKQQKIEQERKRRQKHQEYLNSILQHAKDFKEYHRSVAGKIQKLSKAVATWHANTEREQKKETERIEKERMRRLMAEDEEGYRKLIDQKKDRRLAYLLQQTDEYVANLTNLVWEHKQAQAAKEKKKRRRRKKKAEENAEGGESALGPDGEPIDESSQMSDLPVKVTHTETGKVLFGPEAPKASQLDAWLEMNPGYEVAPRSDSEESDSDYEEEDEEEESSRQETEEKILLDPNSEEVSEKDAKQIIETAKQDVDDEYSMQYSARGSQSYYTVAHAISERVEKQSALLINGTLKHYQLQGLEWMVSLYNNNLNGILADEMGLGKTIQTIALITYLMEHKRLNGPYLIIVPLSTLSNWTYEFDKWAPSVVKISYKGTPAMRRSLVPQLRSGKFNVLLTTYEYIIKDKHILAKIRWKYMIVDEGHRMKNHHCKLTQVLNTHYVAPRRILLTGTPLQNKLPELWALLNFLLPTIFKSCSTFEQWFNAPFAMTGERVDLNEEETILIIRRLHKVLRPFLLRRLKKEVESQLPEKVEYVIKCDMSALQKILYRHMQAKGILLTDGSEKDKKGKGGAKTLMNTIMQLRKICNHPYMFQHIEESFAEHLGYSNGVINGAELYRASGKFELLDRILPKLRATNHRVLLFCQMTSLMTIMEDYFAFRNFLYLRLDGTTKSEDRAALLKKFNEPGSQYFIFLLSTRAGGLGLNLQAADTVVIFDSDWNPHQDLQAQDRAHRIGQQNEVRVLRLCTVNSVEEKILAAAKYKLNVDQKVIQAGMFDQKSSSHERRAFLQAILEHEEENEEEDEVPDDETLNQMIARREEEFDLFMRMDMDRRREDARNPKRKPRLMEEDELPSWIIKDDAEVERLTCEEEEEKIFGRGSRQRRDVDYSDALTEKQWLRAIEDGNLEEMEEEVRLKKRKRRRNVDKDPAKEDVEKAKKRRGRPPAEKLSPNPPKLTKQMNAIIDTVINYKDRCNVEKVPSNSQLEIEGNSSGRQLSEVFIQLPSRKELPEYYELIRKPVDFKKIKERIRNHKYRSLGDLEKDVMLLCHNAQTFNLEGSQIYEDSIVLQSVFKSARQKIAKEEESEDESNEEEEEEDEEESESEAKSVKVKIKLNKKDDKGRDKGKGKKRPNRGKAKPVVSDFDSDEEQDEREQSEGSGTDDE
Protocol: (§1) Example-P2: Determination of SMARCA2 and SMARCA4 Degradation in VCaP Cells by Western Blot
(§2) VCaP (ATCC CRL-2876) was plated in 6 well plates using complete Dulbecco's Modified Eagle's Medium. On the third day, compounds of present invention were added to cells from 10 mM stocks made in DMSO (Sigma Cat no. D2650). Each compound was tested at 100 nM concentration with DMSO not exceeding final percentage of 0.3 in the cells. Cells were incubated with the compound for 16 hours followed by harvesting with 1×RIPA lysis buffer (Thermo Fischer, catalogue number #89900) containing protease inhibitor cocktail (Sigma catalogue number #P-8340). Equal amount of protein was loaded on SDS PAGE gel for electrophoresis. Western blot was carried out for detection of either SMARCA2 (Cell signalling technologies, catalogue number #11966) or SMARCA4 antibody (Cell signalling technologies, catalogue number #52251). Beta-Tubulin antibody (Cell signalling technologies, catalogue number #86298) was used as loading control. Percentage of SMARCA2 or SMARCA4 degradation was calculated by using formula: […]

[3] = target: T2, SMARCA4 (Homo sapiens, UniProt P51532); assay: SMARCA4 degradation in VCaP cells by Western blot; details: VCaP, 16 h, at 100 nM
T2 construct: endogenous in cells; host or cells: VCaP (ATCC CRL-2876)
T2 sequence (P51532 whole entry): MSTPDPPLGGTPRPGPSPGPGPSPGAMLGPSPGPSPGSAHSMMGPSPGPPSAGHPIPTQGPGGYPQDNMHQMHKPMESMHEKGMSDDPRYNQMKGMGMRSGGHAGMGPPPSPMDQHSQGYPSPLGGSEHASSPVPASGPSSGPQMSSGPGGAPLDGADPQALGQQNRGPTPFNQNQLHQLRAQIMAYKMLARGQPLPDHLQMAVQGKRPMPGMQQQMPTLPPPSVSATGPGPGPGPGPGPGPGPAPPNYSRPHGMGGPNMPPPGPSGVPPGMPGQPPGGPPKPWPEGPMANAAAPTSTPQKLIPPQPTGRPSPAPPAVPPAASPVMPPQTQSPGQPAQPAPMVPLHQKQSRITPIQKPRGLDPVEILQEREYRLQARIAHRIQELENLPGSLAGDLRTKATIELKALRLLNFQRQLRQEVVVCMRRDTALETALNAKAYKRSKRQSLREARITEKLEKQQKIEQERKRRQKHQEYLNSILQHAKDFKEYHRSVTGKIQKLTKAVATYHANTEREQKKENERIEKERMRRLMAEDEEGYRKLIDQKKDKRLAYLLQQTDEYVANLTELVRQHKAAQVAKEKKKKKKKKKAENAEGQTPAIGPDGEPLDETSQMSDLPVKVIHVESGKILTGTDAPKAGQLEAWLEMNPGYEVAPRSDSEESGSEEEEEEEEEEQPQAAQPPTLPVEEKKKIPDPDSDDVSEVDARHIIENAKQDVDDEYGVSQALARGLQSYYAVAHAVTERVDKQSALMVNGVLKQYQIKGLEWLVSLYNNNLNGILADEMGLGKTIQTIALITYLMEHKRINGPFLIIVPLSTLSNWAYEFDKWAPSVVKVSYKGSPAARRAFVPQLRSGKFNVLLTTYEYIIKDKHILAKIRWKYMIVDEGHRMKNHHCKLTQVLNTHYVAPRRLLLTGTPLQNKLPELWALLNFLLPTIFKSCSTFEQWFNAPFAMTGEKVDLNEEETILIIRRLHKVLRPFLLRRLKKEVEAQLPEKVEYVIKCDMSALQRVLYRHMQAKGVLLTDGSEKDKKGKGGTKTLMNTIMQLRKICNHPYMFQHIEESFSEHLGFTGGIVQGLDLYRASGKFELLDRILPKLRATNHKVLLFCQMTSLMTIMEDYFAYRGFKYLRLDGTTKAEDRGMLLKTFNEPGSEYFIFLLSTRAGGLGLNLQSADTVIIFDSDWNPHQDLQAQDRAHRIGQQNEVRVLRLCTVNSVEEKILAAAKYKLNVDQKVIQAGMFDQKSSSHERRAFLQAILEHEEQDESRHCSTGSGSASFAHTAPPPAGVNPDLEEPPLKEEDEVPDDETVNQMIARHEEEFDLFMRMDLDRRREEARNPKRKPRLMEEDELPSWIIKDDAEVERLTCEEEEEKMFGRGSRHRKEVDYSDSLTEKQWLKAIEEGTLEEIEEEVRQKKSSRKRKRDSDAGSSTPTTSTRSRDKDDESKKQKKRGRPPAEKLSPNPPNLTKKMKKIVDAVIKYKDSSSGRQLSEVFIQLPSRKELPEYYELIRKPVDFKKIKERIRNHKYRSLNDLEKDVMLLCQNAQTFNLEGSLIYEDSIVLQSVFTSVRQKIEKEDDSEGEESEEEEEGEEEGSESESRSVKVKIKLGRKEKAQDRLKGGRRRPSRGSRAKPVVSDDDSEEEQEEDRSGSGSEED
Protocol: as §1, §2

SMILES: Cc1ncsc1-c1ccc([C@H](C)NC(=O)[C@@H]2C[C@@H](O)CN2C(=O)C(C(C)C)n2cc(-c3ccc(-c4cc(-c5ccccc5O)nnc4N)cc3)cn2)cc1 (stereo partly drawn) [Compound 11, (2S,4R)-1-(2-(4-(4-(3-amino-6-(2-hydroxyphenyl)pyridazin-4-yl)phenyl)-1H-pyrazol-1-yl)-3-methylbutanoyl)-4-hydroxy-N—((S)-1-(4-(4-methylthiazol-5-yl)phenyl)ethyl)pyrrolidine-2-carboxamide]
- EC50 [1]: 10 to 100 nM
- Percent degradation SMARCA2 [2]: 98%
- Percent SMARCA4 degradation at 0.1 µM [3]: 51%

SMILES: Cc1ncsc1-c1ccc([C@H](C)NC(=O)[C@@H]2C[C@@H](O)CN2C(=O)[C@@H](NC(=O)CN2CCN(c3ccc(-c4cc(-c5ccccc5O)nnc4N)cc3)CC2)C(C)(C)C)cc1 [Compound 12, (2S,4R)-1-((S)-2-(2-(4-(4-(3-amino-6-(2-hydroxyphenyl)pyridazin-4-yl)phenyl)piperazin-1-yl)acetamido)-3,3-dimethylbutanoyl)-4-hydroxy-N—((S)-1-(4-(4-methylthiazol-5-yl)phenyl)ethyl)pyrrolidine-2-carboxamide]
- EC50 [1]: < 10 nM
- Percent degradation SMARCA2 [2]: 98%
- Percent SMARCA4 degradation at 0.1 µM [3]: 54%

SMILES: Cc1ncsc1-c1ccc([C@H](C)NC(=O)[C@@H]2C[C@@H](O)CN2C(=O)C(c2cc(OCCOc3ccc(-c4cc(-c5ccccc5O)nnc4N)cc3)no2)C(C)C)cc1 (stereo partly drawn) [Compound 24, (2S,4R)-1-(2-(3-(2-(4-(3-amino-6-(2-hydroxyphenyl)pyridazin-4-yl)phenoxy)ethoxy)isoxazol-5-yl)-3-methylbutanoyl)-4-hydroxy-N—((S)-1-(4-(4-methylthiazol-5-yl)phenyl)ethyl)pyrrolidine-2-carboxamide]
- EC50 [1]: < 10 nM
- Percent degradation SMARCA2 [2]: 95%
- Percent SMARCA4 degradation at 0.1 µM [3]: 96%

SMILES: Cc1ncsc1-c1ccc([C@H](C)NC(=O)[C@@H]2C[C@@H](O)CN2C(=O)[C@@H](NC(=O)CN2CCN(c3ccc(-c4cc(-c5ccccc5O)nnc4N)c(F)c3)CC2)C(C)(C)C)cc1 [Compound 28, (2S,4R)-1-((S)-2-(2-(4-(4-(3-amino-6-(2-hydroxyphenyl)pyridazin-4-yl)-3-fluorophenyl)piperazin-1-yl)acetamido)-3,3-dimethylbutanoyl)-4-hydroxy-N—((S)-1-(4-(4-methylthiazol-5-yl)phenyl)ethyl)pyrrolidine-2-carboxamide]
- EC50 [1]: 10 to 100 nM
- Percent degradation SMARCA2 [2]: 96%
- Percent SMARCA4 degradation at 0.1 µM [3]: 67%

SMILES: Cc1ncsc1-c1ccc([C@H](C)NC(=O)[C@@H]2C[C@@H](O)CN2C(=O)[C@@H](NC(=O)CN2CCC(c3ccc(-c4cc(-c5ccccc5O)nnc4N)cc3)CC2)C(C)(C)C)cc1 [Compound 29, (2S,4R)-1-((S)-2-(2-(4-(4-(3-amino-6-(2-hydroxyphenyl)pyridazin-4-yl)phenyl)piperidin-1-yl)acetamido)-3,3-dimethylbutanoyl)-4-hydroxy-N—((S)-1-(4-(4-methylthiazol-5-yl)phenyl)ethyl)pyrrolidine-2-carboxamide]
- EC50 [1]: < 10 nM
- Percent degradation SMARCA2 [2]: 95%
- Percent SMARCA4 degradation at 0.1 µM [3]: 95%

SMILES: Cc1ncsc1-c1ccc(CNC(=O)[C@@H]2C[C@@H](O)CN2C(=O)[C@@H](NC(=O)CN2CCC(c3ccc(-c4cc(-c5ccccc5O)nnc4N)cc3)CC2)C(C)(C)C)cc1 [Compound 30, (2S,4R)-1-((S)-2-(2-(4-(4-(3-amino-6-(2-hydroxyphenyl)pyridazin-4-yl)phenyl)piperidin-1-yl)acetamido)-3,3-dimethylbutanoyl)-4-hydroxy-N-(4-(4-methylthiazol-5-yl)benzyl)pyrrolidine-2-carboxamide]
- EC50 [1]: 10 to 100 nM
- Percent degradation SMARCA2 [2]: 92%
- Percent SMARCA4 degradation at 0.1 µM [3]: 63%

SMILES: Cc1ncsc1-c1ccc([C@H](C)NC(=O)[C@@H]2C[C@@H](O)CN2C(=O)[C@@H](NC(=O)CC2CCN(c3ccc(-c4cc(-c5ccccc5O)nnc4N)cc3)CC2)C(C)(C)C)cc1 [Compound 38, (2S,4R)-1-((S)-2-(2-(1-(4-(3-amino-6-(2-hydroxyphenyl)pyridazin-4-yl)phenyl)piperidin-4-yl)acetamido)-3,3-dimethylbutanoyl)-4-hydroxy-N-((S)-1-(4-(4-methylthiazol-5-yl)phenyl)ethyl)pyrrolidine-2-carboxamide]
- EC50 [1]: 10 to 100 nM
- Percent degradation SMARCA2 [2]: 100%
- Percent SMARCA4 degradation at 0.1 µM [3]: 91%

Further lines, results first:

- EC50 [1]: < 10 nM
- Percent degradation SMARCA2 [2]: 96%
- Percent SMARCA4 degradation at 0.1 µM [3]: 96%
SMILES: Cc1ncsc1-c1ccc([C@H](C)NC(=O)[C@@H]2C[C@@H](O)CN2C(=O)[C@@H](NC(=O)CCCC#Cc2ccc(-c3cc(-c4ccccc4O)nnc3N)cc2)C(C)(C)C)cc1 [Compound 19, (2S,4R)-1-((S)-2-(6-(4-(3-amino-6-(2-hydroxyphenyl)pyridazin-4-yl)phenyl)hex-5-ynamido)-3,3-dimethylbutanoyl)-4-hydroxy-N—((S)-1-(4-(4-methylthiazol-5-yl)phenyl)ethyl)pyrrolidine-2-carboxamide]

- EC50 [1]: > 100 nM
- Percent degradation SMARCA2 [2]: 97%
- Percent SMARCA4 degradation at 0.1 µM [3]: 71%
SMILES: Cc1ncsc1-c1ccc([C@H](C)NC(=O)[C@@H]2C[C@@H](O)CN2C(=O)[C@@H](NC(=O)CC#Cc2ccc(-c3cc(-c4ccccc4O)nnc3N)cc2)C(C)(C)C)cc1 [Compound 21, (2S,4R)-1-((S)-2-(4-(4-(3-amino-6-(2-hydroxyphenyl)pyridazin-4-yl)phenyl)but-3-ynamido)-3,3-dimethylbutanoyl)-4-hydroxy-N-((S)-1-(4-(4-methylthiazol-5-yl)phenyl)ethyl)pyrrolidine-2-carboxamide]

- EC50 [1]: < 10 nM
- Percent degradation SMARCA2 [2]: 97%
- Percent SMARCA4 degradation at 0.1 µM [3]: 92%
SMILES: Cc1ncsc1-c1ccc([C@H](C)NC(=O)[C@@H]2C[C@@H](O)CN2C(=O)[C@@H](NC(=O)CN2CCN(c3ccc(-c4cc(-c5ccccc5O)nnc4N)cn3)CC2)C(C)(C)C)cc1 [Compound 25, (2S,4R)-1-((S)-2-(2-(4-(5-(3-amino-6-(2-hydroxyphenyl)pyridazin-4-yl)pyridin-2-yl)piperazin-1-yl)acetamido)-3,3-dimethylbutanoyl)-4-hydroxy-N—((S)-1-(4-(4-methylthiazol-5-yl)phenyl)ethyl)pyrrolidine-2-carboxamide]

- EC50 [1]: 10 to 100 nM
- Percent degradation SMARCA2 [2]: 99%
- Percent SMARCA4 degradation at 0.1 µM [3]: 90%
SMILES: Cc1ncsc1-c1ccc([C@H](C)NC(=O)[C@@H]2C[C@@H](O)CN2C(=O)[C@@H](NC(=O)CN2CCC(c3ccc(-c4cc(-c5cc(F)ccc5O)nnc4N)cc3)CC2)C(C)(C)C)cc1 [Compound 31, (2S,4R)-1-((S)-2-(2-(4-(4-(3-amino-6-(5-fluoro-2-hydroxyphenyl)pyridazin-4-yl)phenyl)piperidin-1-yl)acetamido)-3,3-dimethylbutanoyl)-4-hydroxy-N-((S)-1-(4-(4-methylthiazol-5-yl)phenyl)ethyl)pyrrolidine-2-carboxamide]

- EC50 [1]: > 100 nM
- Percent degradation SMARCA2 [2]: 78%
- Percent SMARCA4 degradation at 0.1 µM [3]: 0%
SMILES: Cc1ncsc1-c1ccc([C@H](C)NC(=O)[C@@H]2C[C@@H](O)CN2C(=O)[C@@H](NC(=O)CN2CCN(c3ccc(-c4cc(-c5ccccc5O)nnc4N)cc3)C(=O)C2)C(C)(C)C)cc1 [Compound 39, (2S,4R)-1-((S)-2-(2-(4-(4-(3-amino-6-(2-hydroxyphenyl)pyridazin-4-yl)phenyl)-3-oxopiperazin-1-yl)acetamido)-3,3-dimethylbutanoyl)-4-hydroxy-N-((S)-1-(4-(4-methylthiazol-5-yl)phenyl)ethyl)pyrrolidine-2-carboxamide]
